Patent US8147808B2, “Consumer noticeable improvement in wetness protection using solid antiperspirant compositions” (The Procter & Gamble Company, priority 2005, dated 2012)

Assay: Odor detection threshold (ODT) determined using a gas chromatograph
Conditions: odor detection threshold of HIA perfume ingredient
Source text: HIA perfume ingredients are characterized by their respective boiling point (B.P.), octanol/water partition coefficient (P) and odor detection threshold (“ODT”). The “octanol/water partition coefficient (P)” of a perfume ingredient is the ratio between its equilibrium concentrations in octanol and in water. The boiling points of many perfume ingredients, at standard pressure (760 mm Hg) are given in, e.g., “Perfume and Flavor Chemicals (Aroma Chemicals),” Steffen Arctander, published by the author.
Odor detection thresholds are determined using a gas chromotograph as disclosed in co-pending application, Browne, et al., filed Jun. 9, 2004.

Compound	ODT
CCC=CCCC=CC=O [2-6-nonadienal]	≦50 ppb
CC(C)=CCCC(C)CCCC(C)C=O (stereo not drawn) [Adoxal]	≧50 ppb
C=CCOC(=O)CCCCCC [Allyl Heptanoate]	≧50 ppb
CC/C=C\CCO [Beta Gamma Hexenol]	≧50 ppb
CC/C=C\CCOC(C)=O [Cis 3 Hexenyl Acetate]	≧50 ppb
C/C=C\C(=O)C1C(C)=CCCC1(C)C (stereo not drawn) [Damarose Alpha]	≦50 ppb
CCCCCCCCCC=O [Decyl Aldehyde]	≦50 ppb
CCCCCCC(C=O)=Cc1ccccc1 [Hexyl Cinnamic Aldehyde]	≧50 ppb
CC(=O)/C=C/C1=C(C)CCCC1(C)C [Ionone Beta]	≦50 ppb
CCCCCCCCC/C=C/C=O [Mandarin Aldehyde]	≦50 ppb
CC(C)=CCCC(C)C=O (stereo not drawn) [Melonal]	≦50 ppb
CCCCCCCCCC(C)C=O (stereo not drawn) [Methyl Nonyl Acetaldehyde]	≦50 ppb
CC1=CCC(C(C)CC2CCCC2=O)CC1 (stereo not drawn) [Nectaryl]	≧50 ppb
C=CCCC(=O)C1=CCCC(C)(C)C1 [Neobutenone]	≦50 ppb
CC(=O)CCc1ccc(O)cc1 [Para Hydroxy Phenyl Butanone]	≦50 ppb
CC1(C)C2CC=C(CCC=O)C1C2 (stereo not drawn) [Pino Acetaldehyde]	≦50 ppb
CCC/C=C/C=O [Trans-2 Hexenal]	≦50 ppb
CCCCCCCC1CCC(=O)O1 (stereo not drawn) [Undecalactone]	≧50 ppb
CC(=O)OC1CCCCC1C(C)(C)C (stereo not drawn) [Verdox]	≧50 ppb
C=C(C)[C@H]1CC=C(C)CC1 [d-limonene]	≧50 ppb
CCOC(=O)C(C)CC (stereo not drawn) [ethyl-2-methyl butyrate]	≦50 ppb
CCCCCCC=CC(=O)OC [methyl-2-nonenoate]	≦50 ppb
Citralva Plus	≦50 ppb
Natural Sinensal	≦50 ppb
